According to US9173836B2, “Pharmaceutical preparations for treatments of diseases and disorders of the breast” (FemmeParma Holding Company, Inc., priority 2003, dated 2015):
Read-outs that look alike come from different tables or passages of the source. Marks after values point to notes of the source that are not given here. Blank lines part the entries; values can stand above or below the compound they belong to.

Legend:
[1] = test system: women treated for cyclical mastalgia; conditions: in vivo; cited from earlier work
in vitro = conditions: for recovery at 48 h, 100 µM: % Recovery
Experimental: Dermatomed human abdominal skin was obtained from Asterand Inc. (Detroit, Mich.). The donor was a person. […] After thawing at room temperature, the skin was soaked in saline for 30 minutes, and then cut to the appropriate size (approximately 4 cm^2) necessary. Excess moisture and saline were wiped off. The tissue was immediately transferred to the Franz-cell diffusion chamber and clamped between the donor and receiver chambers. The exposed surface area of the Franz-cell diffusion chamber was 1.77 cm^2. The receiver compartment was filled with 8 mL KRB buffer. The reservoir also contained a stirring bar to mix the reservoir contents. […] The temperature was set to maintain the tissue surface at 32° C.
Samples (1.0 mL) were taken from the receiver compartment at 0, 2, 4, 8, 24, and 48 hours for formulation assays and the control assay. After taking samples, an equal volume of receiver KRB buffer was added back to replace the buffer removed. For the control assay, 200 μl of dosing solution (prior to 0 hours) was taken from the container and 200 μl of 0 and 48 hours samples were taken from the donor side of the chamber.
The liquid chromatography phase was carried out using a Keystone Hypersil BDC C12 30×2.0 mm i.d., 3 μm, with guard column and 25 mM ammonium formate buffer (pH 3.5), where Aqueous Reservoir (A) was 90% water, 10% buffer, and Organic Reservoir (B) was 90% acetonitrile, 10% buffer. A flow rate of 300 μL/minute was applied to a gradient program of 0.0 min: 100% A, 0% B; 1.5 min: 0% A, 100% B; 2.0 min: 0% A, 100% B; 2.1 min: 100% A, 0% B; 3.5 min: 100% A, 0% B; for a total run time of 3.5 minutes (Autosampler: 30 μL injection volume; Autosampler Wash: water/acetonitrile/2-propanol:1/1/1; with 0.2% formic acid). Mass spectroscopy was carried out using a PE SCIEX API 3000 (interface: turbo ionspray; mode: multiple reaction monitoring; method: 3.5 minute duration).
The following calculations were performed: Flux=d[(Cr×Vr)/A]/dt

[2] = type: in vitro ADME; conditions: 10 μg/ml, pH 7.4
Experimental: The concentration in the apparatus was determined after 0 and 180 minutes of incubation to mimic a skin permeation experiment. […] The experiment was done in triplicate.

[3] = Formulations 1 and 2

Compound: CC(C)C[C@H]1C(=O)N2CCC[C@H]2[C@]2(O)O[C@](NC(=O)[C@@H]3C=C4c5cccc6[nH]c(Br)c(c56)C[C@H]4N(C)C3)(C(C)C)C(=O)N12 [Bromocriptine]
Women complaining of more severe side effects [1]: 10% | Women reporting mild side effects (nausea, dizziness, headaches, irritability) [1]: 30%

Compound: Cn1c(=O)c2c(ncn2C)n(C)c1=O [Caffeine, caffeine]
Dosing solution concentration, Mean ± S.D. (in vitro; 100 μM): 108.7 ± 1.5 µM | Cumulative Receiver Concentration (in vitro; female, human, 0 h, 100 μM): 0* μM | Cumulative Receiver Concentration, Mean ± S.D. (in vitro; female, human, 0 h, 100 μM): 0 ± 0 µM | Donor concentration, Mean ± S.D. (in vitro; female, human, 0 h, 100 μM): 102.7 ± 0.6 µM | Cumulative Receiver Concentration, Mean ± S.D. (in vitro; female, human, 2 h, 100 μM): 0.009 ± 0.015 µM | Cumulative Receiver Concentration, Mean ± S.D. (in vitro; female, human, 4 h, 100 μM): 0.018 ± 0.030 µM | Cumulative Receiver Concentration, Mean ± S.D. (in vitro; female, human, 8 h, 100 μM): 0.050 ± 0.075 µM | Cumulative Receiver Concentration, Mean ± S.D. (in vitro; female, human, 24 h, 100 μM): 0.196 ± 0.254 µM | Cumulative Receiver Concentration, Mean ± S.D. (in vitro; female, human, 48 h, 100 μM): 0.390 ± 0.469 µM | Donor concentration, Mean ± S.D. (in vitro; female, human, 48 h, 100 μM): 102.4 ± 11.2 µM | recovery at 48 h, 100 µM (in vitro; female, human): 104% | recovery at 48 h, 100 µM (in vitro; female, human, Mean ± S.D.): 95.6 ± 8.7%

Average Measured Concentration ± STD (N = 3) ([2]; 0 min): 8.9 ± 0.3 µg/mL | Average Measured Concentration ± STD (N = 3) ([2]; 180 min): 8.5 ± 0.3 µg/mL
Compound: C#C[C@]1(O)CC[C@H]2[C@@H]3CCC4=Cc5oncc5C[C@]4(C)[C@H]3CC[C@@]21C [Danazol, danazol]

% Recovery, Mean ± S.D. (in vitro): 85.3 ± 5.4% | Papp (in vitro): 0 ×10⁻⁶ cm/s | Papp, Mean ± S.D. (in vitro): 0 ± 0 ×10^−6 cm/s
Compound: lucifer yellow
Lucifer yellow permeation (membrane integrity) [3]: no permeation of Lucifer yellow detectable until after 8 or 24 hours of incubation | Tissue integrity marker in receiver buffer (in vitro): below lower limit of quantification (LLOQ) in all receiver buffer
